The values below are quoted from earlier work in patent US20230210830A1 (ALKEM LABORATORIES LIMITED, priority 2022, published 2023).

The conditions of series [1]: humans.
Series [2] concerns aneurysmal subarachnoid hemorrhage (aSAH). To be noted: oral administration; patients after aSAH; Ehrlich et al. 2019.
For series [3] the following is noted: Strongest Basic.

Molecules are shown by their SMILES.

In the case of `COCCOC(=O)C1=C(C)NC(C)=C(C(=O)OC(C)C)C1c1cccc([N+](=O)[O-])c1` (stereo not drawn) [nimodipine, isopropyl 2-methoxyethyl 1,4-dihydro-2,6-dimethyl-4-(m-nitrophenyl)-3,5-pyridinedicarboxylate], the “solubility in organic solvents” value (ethanol, polyethylene glycol 400, dimethyl sulfoxide (DMSO), and chloroform) was “soluble”. Moreover, for the setting “water”, the solubility in water entry was “insoluble”. In series [1], the bioavailability is recorded as 12%. Besides, the t1/2 in series [1] (after oral administration) was 1.5 h. The clinical outcome in series [2] was “improved clinical outcome”. Further, in series [3], the pKa is on record as 5.41.
